Experimental data: patent publication US20190241569A1, “3-(ARYL OR HETEROARYL) METHYLENEINDOLIN-2-ONE DERIVATIVES AS INHIBITORS OF CANCER STEM CELL PATHWAY KINASES FOR THE TREATMENT OF CANCER” (Boston Biomedical, Inc., priority 2013, published 2019)
pIC50: −log10 of the molar value. Read-outs that look alike come from different tables or passages of the source.

Tests used:
Format in all cases: cell-based
[1] = test system: A549; assay: Bulk cancer cells, Cell Titer-Glo 72 hours (Test Example 2); conditions: Homo sapiens
Procedure: (§1) Tubes of 3× drug (60 uM in 500 uL complete media) were prepared from 5 mM stock solutions in DMSO. […] To treat cells, 50 uL of drug from the dilution plate was removed and added to the cell plates. […] Cells were harvested 72 hours after drug addition using Cell Titer-Glo (Promega) and luminescence measured on a plate reader.

[2] = test system: ACHN; assay: as above
Procedure: as §1

[3] = test system: FaDu; assay: as above; conditions: Homo sapiens
Procedure: as §1

[4] = test system: FaDu CSC; assay: Cancer stem cells, Cell Titer-Glo 72 hours (Test Example 3); conditions: Homo sapiens, FaDu, 72 h
[5] = test system: A549 CSC; assay: as above; conditions: Homo sapiens
[6] = test system: ACHN CSC; assay: as above

Structure (SMILES) | pIC50 [1] | pIC50 ([2]; Homo sapiens, ACHN, 72 h) | pIC50 [3] | pIC50 [4] | pIC50 [5] | pIC50 ([6]; Homo sapiens, ACHN, 72 h) | pIC50 [2] | pIC50 [6]
CCN(CC)CCNC(=O)c1c(C)[nH]c(/C=C2\C(=O)Nc3ccc(-c4cnccn4)cc32)c1C [Example 180] | 4.98 | 5.00 | 5.18 | 6.64 | 4.88 | 5.58 |  | 
CCN(CC)CCNC(=O)c1c(C)[nH]c(/C=C2\C(=O)Nc3ccc(-c4cncnc4)cc32)c1C [Example 207] | 5.13 | 5.44 | 5.34 | 5.00 | 4.75 | 6.26 |  | 
CCN(CC)CCNC(=O)c1cc(C)c(/C=C2\C(=O)Nc3ccc(-c4csc(-c5ccccc5)n4)cc32)[nH]1 [Example 165] | 5.40 | 4.83 | 4.94 | 5.50 | 4.57 | 5.39 |  | 
CCN(CC)CCNC(=O)c1c(C)[nH]c(/C=C2\C(=O)Nc3ccc(-c4cnc5ccccc5n4)cc32)c1C [Example 185] | 5.09 | 5.24 | 5.58 | 7.40 | 4.37 | 5.25 |  | 
CCN(CC)CCNC(=O)CCc1c(C)[nH]c(/C=C2\C(=O)Nc3ccc(-c4csc(-c5ccccc5)n4)cc32)c1C [Example 149] | 5.95 | 5.61 | 5.41 | 5.45 | 5.06 | 5.37 |  | 
CCN(CC)CCN(C)C(=O)c1c(C)[nH]c(/C=C2\C(=O)Nc3ccc(-c4csc(-c5ccccc5)n4)cc32)c1C [Example 129, (Z)-N-(2-(diethylamino)ethyl)-N,2,4-trimethyl-5-((2-oxo-5-(2-phenylthiazol-4-yl)indolin-3-ylidene)methyl)-1H-pyrrole-3-carboxamide] | 5.00 | 4.95 | 4.74 | 5.44 | 4.98 | 6.16 |  | 
CCN(CC)CCNC(=O)c1c(C)[nH]c(/C=C2\C(=O)Nc3ccc(-c4ncccc4OC)cc32)c1C [Example 189] | 5.13 | 5.15 | 5.58 | 7.15 | 5.16 | 5.85 |  | 
CCN(CC)CCNC(=O)c1c(C)[nH]c(/C=C2\C(=O)Nc3ccc(-c4cnc5cccnn45)cc32)c1C [Example 179] | 5.44 | 5.44 | 5.76 | 7.22 | 5.18 | 5.56 |  | 
CCN(CC)CCNC(=O)c1c(C)[nH]c(/C=C2\C(=O)Nc3ccc(-c4ccc(OC)cn4)cc32)c1C [Example 188] | 4.97 | 5.19 | 5.15 | 6.80 | 5.05 | 5.97 |  | 
Cc1ccc(-c2nc(-c3ccc4c(c3)/C(=C/c3[nH]c(C)c(C(=O)NCCN5CCCC5)c3C)C(=O)N4)cs2)cc1 [Example 103] | 5.22 | 5.63 | 5.37 | 6.51 | 4.91 | 6.85 |  | 
CCN(CC)CCNC(=O)c1c(C)[nH]c(/C=C2\C(=O)Nc3ccc(-c4nc5ccccc5s4)cc32)c1C [Example 191] | 5.43 | 5.02 | 5.31 | 5.22 | 5.38 | 6.01 |  | 
CCN(CC)CCNC(=O)CCc1c(C)[nH]c(/C=C2\C(=O)Nc3ccc(-c4csc(-c5ccncc5)n4)cc32)c1C [Example 167] | 5.00 | 5.13 | 4.55 | 5.34 | 4.45 | 5.91 |  | 
CCN(CC)CCNC(=O)c1c(C)[nH]c(/C=C2\C(=O)Nc3ccc(-c4ccc5ccccc5n4)cc32)c1C [Example 186] | 5.74 | 5.56 | 6.04 |  | 5.82 | 6.48 |  | 
CCN(CC)CCNC(=O)c1c(C)[nH]c(/C=C2\C(=O)Nc3ccc(-c4ccc(C(=O)O)s4)cc32)c1C [Example 209] | 5.66 | 5.69 | 5.92 | 5.37 | 5.05 | 5.64 |  | 
CCN(CC)CCNC(=O)c1c(C)[nH]c(/C=C2\C(=O)Nc3ccc(-c4cccc(OC)n4)cc32)c1C [Example 190] | 5.55 | 5.71 | 5.75 | 6.72 | 5.65 | 6.62 |  | 
Cc1[nH]c(/C=C2\C(=O)Nc3ccc(-c4csc(-c5ccccc5)n4)cc32)c(C)c1S(=O)(=O)N1CCOCC1 [Example 147] | 5.14 | 4.97 | 4.94 | 6.68 | 5.43 | 6.25 |  | 
Cc1[nH]c(/C=C2\C(=O)Nc3ccc(-c4ccc(-c5ccccc5)s4)cc32)c(C)c1C(=O)N1CCOCC1 [Example 11] | 4.99 | 4.89 | 4.68 | 5.61 | 4.96 | 6.64 |  | 
O=C1Nc2ccc(-c3csc(-c4ccncc4)n3)cc2/C1=C/c1cnc[nH]1 [Example 152] | 5.04 | 5.44 | 5.78 | 4.66 | 5.14 | 4.54 |  | 
CCN(CC)CCNC(=O)c1c(C)[nH]c(/C=C2\C(=O)Nc3ccc(-c4ccccn4)cc32)c1C [Example 183] | 5.14 | 5.65 | 5.59 | 6.74 | 5.26 | 5.97 |  | 
CCN(CC)CCNC(=O)c1c(C)[nH]c(/C=C2\C(=O)Nc3ccc(-c4csc(-c5ccc(C)cc5)n4)cc32)c1C [Example 102] |  |  |  | 5.47 | 4.98 | 6.16 |  | 
O=C1Nc2ccc(-c3csc(C4CCNCC4)n3)cc2/C1=C/c1cc2ccccc2[nH]1 [Example 168] | 5.26 | 5.39 | 5.29 | 6.12 | 5.69 | 7.00 |  | 
O=C1Nc2ccc(-c3csc(-c4ccncc4)n3)cc2/C1=C/c1ncc[nH]1 [Example 153] | 4.83 | 6.54 | 5.47 |  | 5.59 | 5.04 |  | 
CCN(CC)CCNC(=O)c1c(C)[nH]c(/C=C2\C(=O)Nc3ccc(-c4csc(C(=O)O)c4)cc32)c1C [Example 202] | 5.11 | 5.11 |  | 4.85 | 4.85 | 5.89 |  | 
O=C1Nc2ccc(-c3csc(-c4ccccc4)n3)cc2/C1=C/c1cc2c([nH]1)CCCC2 [Example 155] |  | 4.46 | 4.69 | 5.39 | 5.85 | 5.60 |  | 

Next, values leading:

pIC50 [1] | pIC50 ([2]; Homo sapiens, ACHN, 72 h) | pIC50 [3] | pIC50 [4] | pIC50 [5] | pIC50 ([6]; Homo sapiens, ACHN, 72 h) | pIC50 [2] | pIC50 [6] | Structure (SMILES)
5.02 | 4.90 | 4.73 | 5.17 | 5.32 | 5.21 |  |  | COC(=O)c1c(C)[nH]c(/C=C2\C(=O)Nc3ccc(-c4csc(-c5ccncc5)n4)cc32)c1C [Example 145]
5.15 | 4.96 | 5.13 | 5.65 | 4.37 | 5.16 |  |  | CCN(CC)CCNC(=O)c1c(C)[nH]c(/C=C2\C(=O)Nc3cc(-c4cnc5ccccc5n4)ccc32)c1C [Example 251]
 |  | 4.70 | 5.93 | 5.31 | 5.54 |  |  | CCN(CC)CCNC(=O)c1c(C)[nH]c(/C=C2\C(=O)Nc3cc(-c4ccc(-c5ccccc5)cn4)ccc32)c1C [Example 256]
 | 4.66 |  | 5.44 | 4.63 | 5.34 |  |  | Cc1ccc(-c2ccc3c(c2)NC(=O)/C3=C\c2[nH]c(C)cc2C)cn1 [Example 244]
5.03 | 5.05 | 4.84 | 4.43 | 4.46 | 5.57 |  |  | Cc1cc(C)c(/C=C2\C(=O)Nc3ccc(-c4csc(-n5ccnc5)n4)cc32)[nH]1 [Example 215]
5.56 | 5.60 | 5.67 | 5.81 | 5.12 | 5.66 |  |  | CCN(CC)CCNC(=O)c1c(C)[nH]c(/C=C2\C(=O)Nc3cc(-c4ccc(O)cc4C)ccc32)c1C [Example 265]
5.38 | 5.38 | 5.12 | 4.70 | 4.88 | 5.73 |  |  | CCN(CC)CCNC(=O)c1c(C)[nH]c(/C=C2\C(=O)Nc3ccc(-c4ncccc4C)cc32)c1C [Example 203]
4.83 |  |  | 5.95 | 5.44 | 6.68 |  |  | CCN(CC)CCNC(=O)c1c(C)[nH]c(/C=C2\C(=O)Nc3cc(-c4ccc(-c5ccccc5)nc4)ccc32)c1C [Example 249]
 |  |  |  | 4.59 |  | 4.65 | 5.47 | Cc1ccc(-c2ccc3c(c2)/C(=C/c2[nH]c(C)cc2C)C(=O)N3)cn1 [Example 228]
4.74 |  |  | 5.06 | 5.23 | 5.60 |  |  | Cc1cc(C)c(/C=C2\C(=O)Nc3cc(-c4cnc5ccccc5n4)ccc32)[nH]1 [Example 242]
4.80 |  | 4.89 | 5.55 | 4.93 | 5.97 |  |  | CCN(CC)CCNC(=O)c1c(C)[nH]c(/C=C2\C(=O)Nc3cc(-c4cnc5ccccc5c4)ccc32)c1C [Example 257]
4.79 |  | 4.78 | 5.29 | 5.18 | 5.87 |  |  | CCN(CC)CCNC(=O)c1c(C)[nH]c(/C=C2\C(=O)Nc3cc(-c4ccc5ccccc5n4)ccc32)c1C [Example 253]
 |  | 5.74 | 6.22 | 5.43 | 6.72 |  |  | CCN(CC)CCNC(=O)c1c(C)[nH]c(/C=C2\C(=O)Nc3cc(-c4csc(-c5ccccc5)n4)ccc32)c1C [Example 7]
